Laboratory results: PubChem BioAssay AID330 (DTP/NCI, 2004)
Toxic doses and inconclusive results are not listed.

System: P388 leukemia ip, CD2F1 mice, survival T/C
Experiment: NCI In Vivo Anticancer Drug Screen. Data for tumor model P388 Leukemia (intraperitoneal) in CD2F1 (CDF1) mice
Settings: endpoint: median survival time, higher = longer survival
How it was run: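 Mice carrying the transplanted tumor received test compound or vehicle. Survival was recorded in each group, and the value is the treated-group measurement divided by that of the vehicle-treated control group.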

[1] = dose: 200.0 mg/kg/injection, schedule: Q01DX001 (ip), vehicle: Klucel (hydroxypropylcellulose) (HPC)
[2] = dose: 400.0 mg/kg/injection, schedule: Q01DX001 (ip), vehicle: Klucel (hydroxypropylcellulose) (HPC)
[3] = dose: 50.0 mg/kg/injection, schedule: Q01DX009 (ip), vehicle: saline with Tween-80
[4] = dose: 120.0 mg/kg/injection, schedule: Q01DX005 (ip), vehicle: saline with Tween-80
[5] = dose: 50.0 mg/kg/injection, schedule: Q01DX005 (ip), vehicle: saline with Tween-80
[6] = dose: 100.0 mg/kg/injection, schedule: Q01DX005 (ip), vehicle: saline with Tween-80
[7] = dose: 200.0 mg/kg/injection, schedule: Q01DX005 (ip), vehicle: saline with Tween-80

**Q.** For `CC(=O)N(c1ccccc1)c1ccccc1[N+](=O)[O-]`, which T/C (dose: 50.0 mg/kg/injection, schedule: Q01DX009 (ip), vehicle: saline) is on record?
**A.** Its T/C is 87 % of control.

**Q.** And the T/C (dose: 100.0 mg/kg/injection, schedule: Q01DX009 (ip), vehicle: saline)?
**A.** Its T/C is 86 % of control.

**Q.** What about the T/C (dose: 200.0 mg/kg/injection, schedule: Q01DX009 (ip), vehicle: saline) of the same compound?
**A.** The T/C was 86 % of control.

**Q.** Which T/C [1] does the source give for `CSC1(SC2=NCCN2)SC2(NCCN2)S1` here?
**A.** Its T/C is 86 % of control.

**Q.** What about the T/C [2] of the same compound?
**A.** The T/C was 90 % of control.

**Q.** For `CCC1(c2ccccc2)SC(=O)NC1=O` (stereo not given), which T/C [3] is on record?
**A.** Its T/C is 91 % of control.

**Q.** And the T/C (dose: 100.0 mg/kg/injection, schedule: Q01DX009 (ip), vehicle: saline with Tween-80)?
**A.** The T/C was 91 % of control.

**Q.** And the T/C (dose: 200.0 mg/kg/injection, schedule: Q01DX009 (ip), vehicle: saline with Tween-80)?
**A.** The T/C was 98 % of control.

**Q.** What does the source list for `c1csc(-c2[nH]nc3c2CCc2ccccc2-3)c1`?
**A.** T/C (dose: 3.75 mg/kg/injection, schedule: Q01DX005 (ip), vehicle: Klucel (hydroxypropylcellulose) (HPC)): 122 % of control; T/C (dose: 7.5 mg/kg/injection, schedule: Q01DX005 (ip), vehicle: Klucel (hydroxypropylcellulose) (HPC)): 114 % of control; T/C (dose: 15.0 mg/kg/injection, schedule: Q01DX005 (ip), vehicle: Klucel (hydroxypropylcellulose) (HPC)): 114 % of control

**Q.** With `CCC(c1ccc(OC)cc1)c1cc2c(cc1OC)OCO2` (stereo not given) as the compound, how does the T/C (dose: 50.0 mg/kg/injection, schedule: Q01DX005 (ip), vehicle: Klucel (hydroxypropylcellulose) (HPC)) read?
**A.** Its T/C is 97 % of control.

**Q.** What about the T/C (dose: 100.0 mg/kg/injection, schedule: Q01DX005 (ip), vehicle: Klucel (hydroxypropylcellulose) (HPC)) of the same compound?
**A.** Its T/C is 106 % of control.

**Q.** What about the T/C (dose: 200.0 mg/kg/injection, schedule: Q01DX005 (ip), vehicle: Klucel (hydroxypropylcellulose) (HPC)) of the same compound?
**A.** The T/C was 113 % of control.

**Q.** `C=CC(C#N)(C=C)C=C` was tested. Which T/C (dose: 12.5 mg/kg/injection, schedule: Q01DX009 (ip), vehicle: saline with Tween-80) did it give?
**A.** The T/C was 104 % of control.

**Q.** And the T/C (dose: 25.0 mg/kg/injection, schedule: Q01DX009 (ip), vehicle: saline with Tween-80)?
**A.** Its T/C is 103 % of control.

**Q.** And the T/C [3]?
**A.** Its T/C is 108 % of control.

**Q.** `COC(=O)C(=O)C(C#N)c1ccc(OC)c(OC)c1` (stereo not given) was tested. Which T/C (dose: 60.0 mg/kg/injection, schedule: Q01DX005 (ip), vehicle: saline with Tween-80) did it give?
**A.** The T/C was 99 % of control.

**Q.** What about the T/C [4] of the same compound?
**A.** Its T/C is 104 % of control.

**Q.** And the T/C (dose: 240.0 mg/kg/injection, schedule: Q01DX005 (ip), vehicle: saline with Tween-80)?
**A.** Its T/C is 95 % of control.

**Q.** Which T/C (dose: 100.0 mg/kg/injection, schedule: Q04DX003 (ip), vehicle: suspension in saline) does the source give for `COc1ccc(C2C3CCCC(C3O)C(c3ccc(OC)cc3)N2C)cc1` (stereo not given) here?
**A.** Its T/C is 103 % of control.

**Q.** What about the T/C (dose: 200.0 mg/kg/injection, schedule: Q04DX003 (ip), vehicle: suspension in saline) of the same compound?
**A.** The T/C was 104 % of control.

**Q.** And the T/C (dose: 400.0 mg/kg/injection, schedule: Q04DX003 (ip), vehicle: suspension in saline)?
**A.** Its T/C is 100 % of control.

**Q.** How did the T/C [5] turn out when `NC(=O)CSCC(=O)c1ccccc1` was run?
**A.** Its T/C is 102 % of control.

**Q.** And the T/C [6]?
**A.** Its T/C is 107 % of control.

**Q.** And the T/C [7]?
**A.** Its T/C is 102 % of control.

**Q.** How did the T/C [4] turn out when `N=C(N)N=Nc1ccc(O)cc1` was run?
**A.** The T/C was 119 % of control.

**Q.** For `O=c1[nH]c2nc(Cl)nc(Cl)c2[nH]1`, which T/C [5] is on record?
**A.** The T/C was 98 % of control.

**Q.** And the T/C [6]?
**A.** Its T/C is 94 % of control.

**Q.** And the T/C [7]?
**A.** The T/C was 93 % of control.

**Q.** With `O=S1(=O)N=C(N2CCCCC2)c2ccccc21` as the compound, how does the T/C [5] read?
**A.** The T/C was 99 % of control.

**Q.** And the T/C [6]?
**A.** Its T/C is 96 % of control.

**Q.** What about the T/C [7] of the same compound?
**A.** Its T/C is 97 % of control.

**Q.** Which T/C (dose: 1.56 mg/kg/injection, schedule: Q01DX009 (ip), vehicle: water) does the source give for `O=C1CC23CCCN2CCc2cc4c(cc2C3=C1O)OCO4` (stereo not given) here?
**A.** The T/C was 98 % of control.

**Q.** What about the T/C (dose: 3.13 mg/kg/injection, schedule: Q01DX009 (ip), vehicle: water) of the same compound?
**A.** Its T/C is 104 % of control.

**Q.** And the T/C (dose: 6.25 mg/kg/injection, schedule: Q01DX009 (ip), vehicle: water)?
**A.** Its T/C is 98 % of control.

**Q.** What about the T/C (dose: 12.5 mg/kg/injection, schedule: Q01DX009 (ip), vehicle: water) of the same compound?
**A.** Its T/C is 92 % of control.

**Q.** What about the T/C (dose: 25.0 mg/kg/injection, schedule: Q01DX009 (ip), vehicle: water) of the same compound?
**A.** Its T/C is 88 % of control.

**Q.** Which T/C (dose: 100.0 mg/kg/injection, schedule: Q01DX001 (ip), vehicle: Klucel (hydroxypropylcellulose) (HPC)) does the source give for `C=Cc1cc(OCC)c(OC)c2ccc3ccc(OC)c(OC)c3c12` here?
**A.** Its T/C is 95 % of control.

**Q.** What about the T/C [1] of the same compound?
**A.** The T/C was 103 % of control.

**Q.** What about the T/C [2] of the same compound?
**A.** The T/C was 92 % of control.

**Q.** For `COc1cc(/C=C(/NC(=O)c2ccccc2)C(O)=C(C#N)C#N)ccc1O`, which T/C (dose: 60.0 mg/kg/injection, schedule: Q01DX005 (ip), vehicle: saline) is on record?
**A.** Its T/C is 95 % of control.

**Q.** And the T/C (dose: 120.0 mg/kg/injection, schedule: Q01DX005 (ip), vehicle: saline)?
**A.** The T/C was 91 % of control.

**Q.** For `CN=C(c1ccc(NC(=O)c2ccc(C(=O)Nc3ccc(C(=NC)N4CCOCC4)cc3)cc2)cc1)N1CCOCC1`, which T/C (dose: 6.25 mg/kg/injection, schedule: Q01DX005 (ip), vehicle: Klucel (hydroxypropylcellulose) (HPC)) is on record?
**A.** The T/C was 105 % of control.

**Q.** What about the T/C (dose: 12.5 mg/kg/injection, schedule: Q01DX005 (ip), vehicle: Klucel (hydroxypropylcellulose) (HPC)) of the same compound?
**A.** Its T/C is 101 % of control.

**Q.** Which results are given for `CC(=O)n1c2ccccc2c2c(C)c3cnccc3c(C)c21`?
**A.** T/C (dose: 12.5 mg/kg/injection, schedule: Q04DX002 (ip), vehicle: saline with Tween-80): 114 % of control; T/C (dose: 25.0 mg/kg/injection, schedule: Q04DX002 (ip), vehicle: saline with Tween-80): 124 % of control; T/C (dose: 50.0 mg/kg/injection, schedule: Q04DX002 (ip), vehicle: saline with Tween-80): 152 % of control; T/C (dose: 100.0 mg/kg/injection, schedule: Q04DX002 (ip), vehicle: saline with Tween-80): 171 % of control; T/C (dose: 200.0 mg/kg/injection, schedule: Q04DX002 (ip), vehicle: saline with Tween-80): 196 % of control
